From US10941157B2, “Pesticidal compositions and uses thereof” (Gilead Apollo, LLC, priority 2015, dated 2021)
Values after ≈ are worked out from the molar mass of the structure shown. Read-outs that look alike come from different tables or passages of the source.

What was measured:
Type in all cases: cell-based
[1] = tested on: Botrtyis cinerea (Bc); experiment: In vitro pathogen growth inhibition assay, Bc; conditions: 48 h
Summary of the method: (§1)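 Value reported is the compound concentration reaching ≥90% growth inhibition, from OD readings at 24 and 48 h after blank subtraction, confirmed visually. Inoculum was spores diluted in 17% V8 medium, except Rs, using 1.5 mm mycelial plugs in ¼ PDB; actual compound concentration corrected via OD600.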

[2] = tested on: Collectotrichum graminicola (Cg); experiment: In vitro pathogen growth inhibition assay, Cg; conditions: 48 h
Summary of the method: as §1

[3] = tested on: Diplodia maydis (Dm); experiment: In vitro pathogen growth inhibition assay, Dm; conditions: Stenocarpella maydis, 48 h
Summary of the method: as §1

[4] = tested on: Fusarium moniliforme (Fm); experiment: In vitro pathogen growth inhibition assay, Fm; conditions: Fusarium verticillioides
Summary of the method: as §1

[5] = tested on: Fusarium virguliforme (Fv); experiment: In vitro pathogen growth inhibition assay, Fv
Summary of the method: as §1

[6] = tested on: Phytophthora capsici (Pc); experiment: In vitro pathogen growth inhibition assay, Pc; conditions: 48 h
Summary of the method: as §1

[7] = tested on: Rhizoctonia solani (Rs); experiment: In vitro pathogen growth inhibition assay, Rs (mycelial plugs); conditions: Rhizoctonia solani, 48 h, mycelial plugs
Summary of the method: as §1

[8] = tested on: Septoria tritici (St); experiment: In vitro pathogen growth inhibition assay, St; conditions: Zymoseptoria tritici, 48 h
Summary of the method: as §1

[9] = tested on: Saccharomyces cerevisiae (Sc); experiment: Yeast growth inhibition assay; conditions: for IC75: Saccharomyces cerevisiae, ≥75% inhibition, read-out: Compound Concentration (ppm) sufficient for ≥75% inhibition, Sc
Description: Both tables list the concentration of each compound that was sufficient to ≥90% inhibition of growth for each of the fungal pathogens listed above. In addition, some of compounds were tested in a yeast growth inhibition assay for Saccharomyces cerevisiae (Sc). Table 2 lists the concentration of the tested compound that was sufficient to ≥75% inhibition of Saccharomyces cerevisiae (Sc).

[10] = ≥90% inhibition, 48 hours vs 2% DMSO control, read-out: Compound Concentration (ppm) sufficient for ≥90% inhibition of growth, Bc
[11] = ≥90% inhibition, 48 hours vs 2% DMSO control, read-out: Compound Concentration (ppm) sufficient for ≥90% inhibition of growth, Cg
[12] = ≥90% inhibition, 48 hours vs 2% DMSO control, read-out: Compound Concentration (ppm) sufficient for ≥90% inhibition of growth, Dm
[13] = ≥90% inhibition, 48 hours vs 2% DMSO control, read-out: Compound Concentration (ppm) sufficient for ≥90% inhibition of growth, Fm
[14] = ≥90% inhibition, 48 hours vs 2% DMSO control, read-out: Compound Concentration (ppm) sufficient for ≥90% inhibition of growth, Fv
[15] = ≥90% inhibition, 48 hours vs 2% DMSO control, read-out: Compound Concentration (ppm) sufficient for ≥90% inhibition of growth, Pc
[16] = ≥90% inhibition, 48 hours vs 2% DMSO control, read-out: Compound Concentration (ppm) sufficient for ≥90% inhibition of growth, Rs
[17] = ≥90% inhibition, 48 hours vs 2% DMSO control, read-out: Compound Concentration (ppm) sufficient for ≥90% inhibition of growth, St

| IC90 [1, 10] [µg/mL] | IC90 [2, 11] [µg/mL] | IC90 [3, 12] [µg/mL] | IC90 [4, 13] [µg/mL] | IC90 [5, 14] [µg/mL] | IC90 [6, 15] [µg/mL] | IC90 [7, 16] [µg/mL] | IC90 [8, 17] [µg/mL] | IC90 ([1]; ≥90% growth inhibition, 48 hours, vs 2% DMSO control, read-out: Compound Concentration (ppm) sufficient for ≥90% inhibition of Bc) [µg/mL] | IC90 ([2]; ≥90% growth inhibition, 48 hours, vs 2% DMSO control, read-out: Compound Concentration (ppm) sufficient for ≥90% inhibition of Cg) [µg/mL] | IC90 ([3]; ≥90% growth inhibition, 48 hours, vs 2% DMSO control, read-out: Compound Concentration (ppm) sufficient for ≥90% inhibition of Dm) [µg/mL] | IC90 ([4]; ≥90% growth inhibition, 48 hours, vs 2% DMSO control, read-out: Compound Concentration (ppm) sufficient for ≥90% inhibition of Fm) [µg/mL] | IC90 ([5]; ≥90% growth inhibition, 48 hours, vs 2% DMSO control, read-out: Compound Concentration (ppm) sufficient for ≥90% inhibition of Fv) [µg/mL] | IC90 ([6]; ≥90% growth inhibition, 48 hours, vs 2% DMSO control, read-out: Compound Concentration (ppm) sufficient for ≥90% inhibition of Pc) [µg/mL] | IC90 ([7]; ≥90% growth inhibition, 48 hours, vs 2% DMSO control, read-out: Compound Concentration (ppm) sufficient for ≥90% inhibition of Rs) [µg/mL] | IC90 ([8]; ≥90% growth inhibition, 48 hours, vs 2% DMSO control, read-out: Compound Concentration (ppm) sufficient for ≥90% inhibition of St) [µg/mL] | Compound | IC75 [9] [µg/mL] | Compound Concentration (ppm) sufficient for ≥75% inhibition of Sc [9] [ppm] |
| --- | --- | --- | --- | --- | --- | --- | --- | --- | --- | --- | --- | --- | --- | --- | --- | --- | --- | --- |
| 2 (≈ 3.14 µM) | 10 (≈ 15.7 µM) | 10 (≈ 15.7 µM) | 0.4 (≈ 0.628 µM) | 2 (≈ 3.14 µM) | > 50 | 10 (≈ 15.7 µM) | 50 (≈ 78.5 µM) | – | – | – | – | – | – | – | – | COc1ccccc1[C@H](Cn1c(=O)n(C(C)(C)C(=O)N2CCCC2)c(=O)c2c(C)c(-c3ncco3)sc21)O[C@H]1CC[C@@H](O)CC1 [Compound I-111] | 3.7 (≈ 5.81 µM) | – |
| – | – | – | – | – | – | – | – | 10 (≈ 16.8 µM) | 50 (≈ 83.8 µM) | ≥ 10 | ≥ 0.4 | 50 (≈ 83.8 µM) | > 50 | > 50 | > 50 | CCNC(=O)C(C)(C)n1c(=O)c2c(C)c(-c3ncco3)sc2n(C[C@H](OC2CCOCC2)c2ccccc2OC)c1=O [Compound I-169] | – | 11.0 |
| 2 (≈ 3.57 µM) | 10 (≈ 17.9 µM) | 10 (≈ 17.9 µM) | 0.4 (≈ 0.715 µM) | 2 (≈ 3.57 µM) | > 50 | 50 (≈ 89.3 µM) | > 50 | – | – | – | – | – | – | – | – | CCNC(=O)C(C)(C)n1c(=O)c2c(C)c(C(=O)OCC)sc2n(C[C@H](OC(C)C)c2ccccc2OC)c1=O [Compound I-108] | 11.1 (≈ 19.8 µM) | – |

The next lines start with the compound.

| Compound | IC90 [1, 10] [µg/mL] | IC90 [2, 11] [µg/mL] | IC90 [3, 12] [µg/mL] | IC90 [4, 13] [µg/mL] | IC90 [5, 14] [µg/mL] | IC90 [6, 15] [µg/mL] | IC90 [7, 16] [µg/mL] | IC90 [8, 17] [µg/mL] | IC90 ([1]; ≥90% growth inhibition, 48 hours, vs 2% DMSO control, read-out: Compound Concentration (ppm) sufficient for ≥90% inhibition of Bc) [µg/mL] | IC90 ([2]; ≥90% growth inhibition, 48 hours, vs 2% DMSO control, read-out: Compound Concentration (ppm) sufficient for ≥90% inhibition of Cg) [µg/mL] | IC90 ([3]; ≥90% growth inhibition, 48 hours, vs 2% DMSO control, read-out: Compound Concentration (ppm) sufficient for ≥90% inhibition of Dm) [µg/mL] | IC90 ([4]; ≥90% growth inhibition, 48 hours, vs 2% DMSO control, read-out: Compound Concentration (ppm) sufficient for ≥90% inhibition of Fm) [µg/mL] | IC90 ([5]; ≥90% growth inhibition, 48 hours, vs 2% DMSO control, read-out: Compound Concentration (ppm) sufficient for ≥90% inhibition of Fv) [µg/mL] | IC90 ([6]; ≥90% growth inhibition, 48 hours, vs 2% DMSO control, read-out: Compound Concentration (ppm) sufficient for ≥90% inhibition of Pc) [µg/mL] | IC90 ([7]; ≥90% growth inhibition, 48 hours, vs 2% DMSO control, read-out: Compound Concentration (ppm) sufficient for ≥90% inhibition of Rs) [µg/mL] | IC90 ([8]; ≥90% growth inhibition, 48 hours, vs 2% DMSO control, read-out: Compound Concentration (ppm) sufficient for ≥90% inhibition of St) [µg/mL] | IC75 [9] [µg/mL] | Compound Concentration (ppm) sufficient for ≥75% inhibition of Sc [9] [ppm] |
| --- | --- | --- | --- | --- | --- | --- | --- | --- | --- | --- | --- | --- | --- | --- | --- | --- | --- | --- |
| COc1ccc(F)cc1[C@H](Cn1c(=O)n(C(C)(C)C(N)=O)c(=O)c2c(C)c(-c3ncco3)sc21)O[C@H]1CC[C@@H](O)CC1 [Compound I-103] | 2 (≈ 3.33 µM) | 50 (≈ 83.2 µM) | 10 (≈ 16.6 µM) | 0.4 (≈ 0.666 µM) | 2 (≈ 3.33 µM) | > 50 | 50 (≈ 83.2 µM) | > 10 | – | – | – | – | – | – | – | – | 1.2 (≈ 2 µM) | – |
| COc1ccccc1[C@H](Cn1c(=O)n(C(C)(C)C(=O)N2CCCCC2)c(=O)c2c(C)c(-c3ncco3)sc21)OC1CCOCC1 [Compound I-004] | 0.4 (≈ 0.628 µM) | 2 (≈ 3.14 µM) | 2 (≈ 3.14 µM) | 0.08 (≈ 0.126 µM) | 2 (≈ 3.14 µM) | > 50 | 10 (≈ 15.7 µM) | > 10 | – | – | – | – | – | – | – | – | 3.7 (≈ 5.81 µM) | – |
| COc1ccccc1[C@H](Cn1c(=O)n(C(C)(C)C(=O)N2CCCC2)c(=O)c2c(C)c(-c3ncco3)sc21)OC1CCC(=O)CC1 [Compound I-112] | 2 (≈ 3.15 µM) | ≥ 2 | 10 (≈ 15.8 µM) | 0.4 (≈ 0.63 µM) | 10 (≈ 15.8 µM) | > 50 | 50 (≈ 78.8 µM) | 50 (≈ 78.8 µM) | – | – | – | – | – | – | – | – | 3.7 (≈ 5.83 µM) | – |
